Where two headings read alike, the source gives them in different places.
Key:
[1] = not given; remark: listed apart in the source
[2] = not given; remark: listed apart in the source
[3] = test system: U87MG cells; assay: Intracellular ROS generation, CellROX Deep Red, flow cytometry; assay type: cell-based, human; settings: 15 μM, 24 h, green light 515 nm, 13.1 J cm–2, normoxia, n = 2
Protocol: Figure 3 Light activation mechanism in cells treated with Ru-peptide conjugates. (a) Emission intensity of cells treated with Ru-p(HH), Ru-p(MH), or Ru-p(MM) (15 μM, 24 h) and irradiated with green light (520 nm, 13.1 J cm^–2) for different times: 0–1200 s, as determined by flow cytometry using a PC5.5 filter (ex/em = 488/650 ± 50 nm). (b) Intracellular ROS generation assay in normoxic (N) and hypoxic (H) U87MG cells according to FACS analysis using nonselective ROS probe CellROX Deep Red Reagent, after treatment with Ru-p(HH), Ru-p(MH), Ru-p(MM), cisplatin, Rose Bengal, or [Ru(Ph2phen)2Cl2] (labeled as Ru-Cl2) (15 μM, 24 h), in the dark and after light irradiation (515 nm, 13.1 J cm^–2). tBHP (250 μM, 1 h) was used as a positive control for ROS generation. Error bars: SEM, n = 2. (c) Slopes of the UV–vis absorption of AMDA (for ^1O2, blue bars) or emission intensity of DHE (for O2^•–, red bars) vs irradiation time (see Figures S26–S28) after being incubated with Ru-p(HH), Ru-p(MH), Ru-p(MM), Ru-Cl2, or Rose Bengal (20 μM) and irradiated with green light in Opti-MEM solution. (d) Percentage of alive (−/−), early apoptotic (−/+), late apoptotic (+/+) and necrotic (+/−) U87MG cells costained with Apopxin Deep Red Indicator and Nuclear Green DCS1 as quantified by flow cytometry, after treatment with Ru-p(HH), Ru-p(MH), Ru-p(MM), cisplatin or Rose Bengal in the dark (D) and after light irradiation (L, DLI = 24 h, 515 nm, 13.1 J cm^–2); drug concentration: 20 μM, DLI = 24 h).
Second, CellROX Deep Red, a nonspecific molecular probe for ROS formation, was used to quantify the photodynamic behaviors by each of the three complexes in U87MG cells,.[22] […]
The generation of ROS (reactive oxygen species) in U87MG cells was measured using a ROS deep red fluorescence indicator (Abcam, ab186029). […] The levels of intracellular ROS were then determined using a CytoFLEX flow cytometer using the APC-A (638 nm excitation, 660/10 nm emission) channel. […]

[4] = reference value; cited from earlier work
Description: Table 1 Photochemical Data for Ru-Peptide Conjugates | column: complex

[5] = test system: U87MG cells; assay: 2D cytotoxicity assay, SRB end point, dark vs green light; assay type: cell-based, human; settings: normoxia (21% O2); for EC50: SRB at 96 h
Protocol: To test the in vitro phototoxicity of the three complexes toward 2D monolayer U87MG cells, a cell viability assay was undertaken as follows: the cells were seeded at t = 0, treated at t = 24 h, irradiated with green light (520 nm, 13.1 J cm^–2) at t = 48 h without refreshing the medium (drug-to-light interval = 24 h), further incubated in the dark for 48 h, and counted at t = 96 h with a sulforhodamine B (SRB) cell quantification end point assay.[45] Half-maximal effective concentrations (EC50 in μM), compared to untreated control, and photoindex (PI) values, defined as EC50,dark/ EC50,light, were calculated to characterize the toxicity and light activation of each Ru-peptide conjugate. […] However, a much stronger discrepancy appeared in the 2D toxicity data in hypoxic conditions (Table 2, Figure S22b). The phototherapeutic properties of Ru-p(HH) in the green light group were the poorest, leading to a PI of only 1.3. […] Ru-p(MH) stood somewhere between these values with a PI of 1.9 under hypoxia. […] The loss of activity of Ru-p(HH) under hypoxia is consistent with the hypothesis of a PDT pathway, while Ru-p(MM) keeping appreciable phototoxicity under hypoxia better fits the hypothesis of a PACT cell-killing mechanism.
U87MG cells (6000) were seeded in 96-well plates (Sarstedt, 83.3924), and each well contained 100 μL of Opti-MEM (Gibco complete medium 11058-021, supplemented with 2.5% v/v fetal calf serum (FCS), 0.2% v/v penicillin/streptomycin (P/S), and 1% v/v glutamine). They were then placed either in a normoxic (21% O2) or hypoxic (1.0% O2) incubator; 24 h later, different concentrations of Ru-p(HH), Ru-p(MH), or Ru-p(MM) dissolved in Opti-MEM (100 μL) were added to the wells in triplicate. For each complex, one dark and one light plate were involved. Each plate was further incubated in the dark for 24 h (DLI). After that, one plate was irradiated with green light (520 nm) for 20 min at 37 °C for normoxia (dose = 13.1 J cm^–2) or 30 min for hypoxia (dose = 13.0 J cm^–2), while the other plate was kept in the dark. The cells were further incubated for another 2 days in normoxic or hypoxic conditions, respectively. Finally, 100 μL of cold trichloroacetic acid (10% w/v) was added to each well to fix the cells, and all plates were then transferred to a 4 °C refrigerator for 48 h before an SRB cell quantification end point assay was performed.[45] All experiments were conducted in biologically independent triplicate.
Hypoxic cell models in vitro: all cells were incubated and passaged in a dark hypoxic incubator (1% O2) for at least 2 weeks before all hypoxia studies. Adding chemicals to the cells had to be performed in air; however, the cell-growing medium was kept in the hypoxia incubator for at least 2 days before the addition to hypoxic cells, and all hypoxic light irradiations were performed inside the hypoxic incubator set at 1.0% O2.

Ac-MRGDH-NH2
relative emission intensity compared to Ru-p(HH): 2% | λem [1]: 700 nm | λmax [2]: 465 nm

N.N.[Cl][Pt][Cl] [cisplatin]
intracellular ROS production, normoxia [3]: barely showed any ROS formation

Ac-HRGDH-NH2
λem [1]: 658 nm | λmax [2]: 500 nm

[Cl][Ru][Cl].c1ccc(-c2ccccn2)nc1.c1ccc(-c2ccccn2)nc1.c1ccc(-c2ccccn2)nc1 [[Ru(bpy)3]Cl2]
ΦΔ ref, singlet oxygen quantum yield of the reference [4]: 73%

[Ru(Ph2phen)2Cl2]
PI, photoindex EC50,dark/EC50,light [5]: 7.2 | EC50 ([5]; 520 nm, 10.9 mW cm–2, 13.1 J cm–2, 20 min, DLI 24 h, n = 3, read-out: EC50, green light): 200 nM | EC50 ([5]; light dose 0, 24 h treatment, no wash, n = 3, read-out: EC50, dark): 1430 nM | intracellular ROS production, normoxia [3]: able to generate ROS in cells

Ac-MRGDM-NH2
relative emission intensity compared to Ru-p(HH): 0.2% | λem [1]: 700 nm | λmax [2]: 400 nm

O=C([O-])c1c(Cl)c(Cl)c(Cl)c(Cl)c1-c1c2cc(I)c(=O)c(I)c-2oc2c(I)c([O-])c(I)cc12.[Na+].[Na+] [Rose Bengal]
intracellular ROS production, normoxia [3]: high amount of ROS

Reference: publication PMC11672551, “Cyclic Ruthenium-Peptide Prodrugs Penetrate the Blood–Brain Barrier and Attack Glioblastoma upon Light Activation in Orthotopic Zebrafish Tumor Models” (ACS Central Science, 2024)
